In patent publication US8038997B2, “Anti-marinobufagenin antibodies and methods for their use” (priority 2005, dated 2011):

Columns and labels:
[1] = test system: 3E9 mAb; experiment: Cross-reactivity of the 3E9 mAb (50% displacement of bound MBG); format: binding, mouse; details: amount of MBG for 50% displacement versus amount of cross-reactant
Excerpt: (§1) The percent cross-reactivity of the 3E9, 4G4 and 4H2 mAbs was defined as the ratio of the amount of MBG required to displace 50% of maximally bound MBG from the particular anti-MBG mAb, versus the amount of the cross-reactant to give the same 50% displacement. The binding specificities of the 3E9 mAb for a panel of steroids are shown in Table I; those for the 4112 and 4G4 mAbs are shown in Table II.

[2] = test system: 4H2 mAb; experiment: Cross-reactivity of the 4H2 mAb (50% displacement of bound MBG); format: binding, mouse; details: amount of MBG for 50% displacement versus amount of cross-reactant
Excerpt: as §1

[3] = test system: 4G4 mAb; experiment: Cross-reactivity of the 4G4 mAb (50% displacement of bound MBG); format: binding, mouse; details: amount of MBG for 50% displacement versus amount of cross-reactant
Excerpt: as §1

[4] = test system: polyclonal antidigoxin rabbit antibody; experiment: DELFIA immunoassay, displacement of digoxin standards; format: binding; details: equimolar concentrations of MBG and its conjugate
Excerpt: Prior to immunization, the conjugate MBG-glycoside-BSA was compared with MBG for its ability to react with polyclonal antidigoxin rabbit antibody, using a DELFIA immunoassay.

[5] = Experimental uremic cardiomyopathy: partial nephrectomy, MBG infusion, immunization against MBG-BSA; details: male, Sprague-Dawley, rat, plasma, other: infusion with an osmotic minipump, 10 μg/kg per day
Description: (§2) Male, Sprague-Dawley were use in this study. Rats subjected to sham surgery and no MBG infusion or partial nephrectomy were referred to as Sham (n=18). […] MBG-infused rats were referred to as MBG (n=20). Rats immunized against MBG-BSA conjugate before partial nephrectomy were referred to as PNx-IM (n=18).
(§3) MBG was isolated from toad (Bufo Marinus) venom. […] MBG was infused for a period of 4 weeks at 10 μg/kg per day with an osmotic minipump (Alzet Model 2004, Durect Corp).
(§4) Partial nephrectomy (five-sixth nephrectomy) was induced by removal of the right kidney and selective infarction of two-thirds of the left kidney with silk ligatures.
(§5) Rats were immunized with an MBG-BSA conjugate and subjected to partial nephrectomy. The immunization schedule was 3 weekly injections (250 μg/kg per week SQ) in complete Freund's adjuvant before the partial nephrectomy with a last boost at the time of surgery.
(§6) BP was measured once a week by the tail-cuff method in conscious, restrained rats with equipment made by IITC, Inc (Amplifier model 229, Monitor model 31, Test chamber Model 306; IITC Life Science). Before sacrifice at 4 weeks, animals had ventricular pressures determined by placement of a 2F Millar Microtip Catheter Transducer (Millar Instruments Inc) into the left ventricle through a carotid insertion. Hemodynamic data were acquired at 500 Hz and stored electronically using a BioPac MP110 acquisition system and AcqKnowledge 4.7.3 software (BIOPAC Systems, Inc). The values of left ventricular end-diastolic pressure (LVEDP), systolic pressure, developed pressure, maximal velocity of rise or fall in pressure (dP/dt) and the time constant for isovolumic relaxation were determined using standard methods. At the end of 4 weeks, 2D and M-mode echocardiographic studies were performed using a Philips Sonos 5500 cardiovascular ultrasound imaging system (Philips Medical Systems) equipped with a 15 MHz linear transducer. Parasternal long-axis and short-axis views were obtained.
(§7) MBG and ouabain-like compound (OLC) in plasma and urine was determined at 4 weeks after extraction with C-18 columns.
(§8) At the time of sacrifice, left ventricles were quickly dissected out, frozen in liquid nitrogen, and stored at −80° C. until further analysis. Western blot analysis was performed using SDS-PAGE gels (Ready Gel, BioRad).
(§9) Total protein carbonyl concentration of both the plasma and left ventricular homogenate was determined by ELISA using the Zentech PC Test kit (Northwest Life Science Specialties). Total plasma malondialdehyde was measured spectrophotometrically using the Bioxytech MDA-586 kit (Oxis Research).
(§10) To measure sarcoplasmic reticulum calcium ATPase activity, which is predominantly SERCA2a activity in left ventricles of rat cardiac tissue, the method of Simonides and van Hardeveld (Simonides and van Hardeveld, Anal. Biochem. 191:321-331, 1990) was used with minor modifications.
(§11) Hematocrit was measured from whole blood collected in heparinized capillary tubes and spun on a microhematocrit centrifuge (Fisher Scientific). Plasma creatinine was determined spectrophotometrically with a colorimetric end point assay (Teco Diagnostics). Plasma aldosterone levels were measured by ELISA (Cayman). Plasma parathyroid hormone was assayed using the Rat Intact PTH ELISA kit (Immutopics). All of the analyses were performed on blood collected upon sacrifice at 4 weeks.

[6] = test system: Sprague-Dawley rats; experiment: as above
Description: as §2, §3, §4, §5, §6, §7, §8, §9, §10, §11

[7] = 4 weeks after MBG infusion or immunization prior to partial nephrectomy

Compound	Percent cross-immunoreactivity [1] [%]	4H2 Percent cross-immunoreactivity [2] [%]	4G4 Percent cross-immunoreactivity [3] [%]	also measured
C[C@]12CC[C@H](O)C[C@H]1CC[C@@H]1[C@@H]2CC[C@]2(C)[C@@H](c3ccc(=O)oc3)CC[C@]12O [Bufalin]	0.25	0.07	0.08	–
CC(=O)O[C@H]1[C@H]2O[C@]23[C@@H]2CC[C@@H]4C[C@@H](O)CC[C@]4(C)[C@H]2CC[C@]3(C)[C@H]1c1ccc(=O)oc1 [Cinobufagin]	1.4	0.11	0.07	–
CC(=O)O[C@H]1[C@H]2O[C@]23[C@@H]2CC[C@]4(O)C[C@@H](O)CC[C@]4(C)[C@H]2CC[C@]3(C)[C@H]1c1ccc(=O)oc1 [Cinobufotalin]	4	58	43	–
C[C@]12C[C@H](O)[C@H]3[C@@H](CCC4=CC(=O)CC[C@@]43C)[C@@H]1CC[C@@H]2C(=O)CO [Corticosterone]	<0.01	–	–	–
C[C@H]1O[C@@H](O[C@H]2[C@@H](O)C[C@H](O[C@H]3[C@@H](O)C[C@H](O[C@H]4CC[C@@]5(C)[C@H](CC[C@@H]6[C@@H]5CC[C@]5(C)[C@@H](C7=CC(=O)OC7)CC[C@]65O)C4)O[C@@H]3C)O[C@@H]2C)C[C@H](O)[C@@H]1O [Digitoxin]	0.7	–	–	–
C[C@H]1O[C@@H](O[C@H]2[C@@H](O)C[C@H](O[C@H]3[C@@H](O)C[C@H](O[C@H]4CC[C@@]5(C)[C@H](CC[C@@H]6[C@@H]5C[C@@H](O)[C@]5(C)[C@@H](C7=CC(=O)OC7)CC[C@]65O)C4)O[C@@H]3C)O[C@@H]2C)C[C@H](O)[C@@H]1O [Digoxin]	1.8	0.03	0.003	–
C[C@]12CC[C@H](O)C[C@@]1(O)CC[C@@H]1[C@@H]2CC[C@]2(C)[C@@H](c3ccc(=O)oc3)CC3O[C@@]312 (stereo partly drawn) [MBG, 3β,5β-dihydroxy-14,15-epoxy bufadienolide]	100	100	100	displacement of digoxin standards [4]: exactly similar displacement of digoxin standards; concentration at 4 weeks [5]: 0.546 ± 0.034 nM; Hematocrit [6, 7]: 44.6 ± 0.9%; Left ventricular carbonylated protein [6, 7]: 505 ± 22 pmol/mg protein; Plasma [OLC] [6, 7]: 493 ± 41 pmol/L; Plasma aldosterone [6, 7]: 322 ± 38 pg/mL; Plasma carbonylated protein [6, 7]: 378 ± 15 pmol/mg protein; Plasma creatinine [6, 7]: 0.52 ± 0.07 mg/dL; Plasma parathyroid hormone [6, 7]: 41 ± 9 pg/mL; Plasma total malondialdehyde [6, 7]: 474 ± 41 nm; Urinary MBG excretion (UMBGV) [6, 7]: 49.1 ± 3.5 pmol/24 h; Urinary OLC excretion (UOLCV) [6, 7]: 10.6 ± 0.9 pmol/24 h; left ventricular hemodynamics (dP/dt, LVEDP, time constant for isovolumic relaxation) ([6]; Millar catheter after 4 weeks): only the changes in LVEDP and time constant for isovolumic relaxation achieved statistical significance; heart weight / cardiac size ([6]; after 4 weeks): significant increases in heart weight; echocardiographic changes (wall thickness, chamber size, FS) ([6]; at 4 weeks, MBG versus sham, immunization versus partial nephrectomy): not associated with significant changes; systolic BP during the 4 weeks of observation ([6]; tail-cuff, conscious rats, MBG versus control, immunization versus partial nephrectomy): some increases in BP
C[C@]12CC[C@H](OC(=O)CCCCCCC(=O)N[C@@H](CCCN=C(N)N)C(=O)O)C[C@@]1(O)CC[C@@H]1[C@@H]2CC[C@]2(C)[C@@H](c3ccc(=O)oc3)C[C@H]3O[C@]132 [Marinobufotoxin]	4	55	44	–
C[C@]12C[C@@H](O)[C@H]3[C@@H](CC[C@]4(O)C[C@@H](O)C[C@@H](O)[C@]34CO)[C@@]1(O)CC[C@@H]2C1=CC(=O)OC1 [Ouabagenin]	<0.01	–	–	–
C[C@@H]1O[C@@H](O[C@H]2C[C@@H](O)[C@]3(CO)[C@H]4[C@H](O)C[C@]5(C)[C@@H](C6=CC(=O)OC6)CC[C@]5(O)[C@@H]4CC[C@]3(O)C2)[C@H](O)[C@H](O)[C@H]1O [Ouabain]	0.3	0.03	0.004	–
C[C@]12C=CC(=O)C=C1CC[C@@H]1[C@@H]2C(=O)C[C@@]2(C)[C@H]1CC[C@]2(O)C(=O)CO [Prednisone]	<0.01	–	–	–
CC(=O)[C@H]1CC[C@H]2[C@@H]3CCC4=CC(=O)CC[C@]4(C)[C@H]3CC[C@]12C [Progesterone]	0.3	–	–	–
C[C@@H]1O[C@@H](O[C@@H]2C=C3CC[C@@H]4[C@H](CC[C@]5(C)[C@@H](c6ccc(=O)oc6)CC[C@]45O)[C@@]3(C)CC2)[C@H](O)[C@H](O)[C@H]1O [Proscillaridin]	3	–	–	–
C[C@]12CC[C@H](O)C[C@H]1CC[C@@H]1[C@@H]2CC[C@]2(C)[C@@H](c3ccc(=O)oc3)C[C@H]3O[C@]132 [Resibufagenin]	–	0.2	0.6	–
CC(=O)S[C@@H]1CC2=CC(=O)CC[C@]2(C)[C@H]2CC[C@@]3(C)[C@@H](CC[C@@]34CCC(=O)O4)[C@H]12 [Spironolactone]	0.22	–	–	–
Telocinobufotoxin	7	–	–	–
